In PMC6465334, “Functional Analysis of MsepOR13 in the Oriental Armyworm Mythimna separata (Walker)” (Frontiers in Physiology, 2019):

Experiments:
[1] = molecular target: T1, MsepOR13/Orco (MsepOR13/MsepOrco) (Mythimna separata, UniProt A0A650FIP0); experiment: two-electrode voltage clamp, Xenopus oocytes, single concentration; format: cell-based; conditions: MsepOrco co-expressed; holding potential -80 mV; 15 s exposure at 10^-4 M; agonist
T1 construct: gene OR13; full-length untagged MsepOR13, 408 aa (ORF 1227 bp), cloned from adult antennal cDNA; pT7Ts cRNA, Xenopus oocytes; with Odorant receptor coreceptor
T1 sequence (A0A650FIP0 1-408): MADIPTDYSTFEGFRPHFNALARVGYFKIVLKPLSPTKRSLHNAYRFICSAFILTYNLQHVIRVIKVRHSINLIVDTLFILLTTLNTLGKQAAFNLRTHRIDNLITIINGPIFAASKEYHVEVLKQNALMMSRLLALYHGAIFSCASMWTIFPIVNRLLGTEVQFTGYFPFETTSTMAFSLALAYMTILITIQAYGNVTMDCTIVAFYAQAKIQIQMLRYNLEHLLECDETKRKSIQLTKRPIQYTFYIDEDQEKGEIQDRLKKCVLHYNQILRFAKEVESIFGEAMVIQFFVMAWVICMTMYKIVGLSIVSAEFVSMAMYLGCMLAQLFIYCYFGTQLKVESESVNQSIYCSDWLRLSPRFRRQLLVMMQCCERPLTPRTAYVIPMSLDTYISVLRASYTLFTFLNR
T1 sequence (B5MEJ5 1-473 partner): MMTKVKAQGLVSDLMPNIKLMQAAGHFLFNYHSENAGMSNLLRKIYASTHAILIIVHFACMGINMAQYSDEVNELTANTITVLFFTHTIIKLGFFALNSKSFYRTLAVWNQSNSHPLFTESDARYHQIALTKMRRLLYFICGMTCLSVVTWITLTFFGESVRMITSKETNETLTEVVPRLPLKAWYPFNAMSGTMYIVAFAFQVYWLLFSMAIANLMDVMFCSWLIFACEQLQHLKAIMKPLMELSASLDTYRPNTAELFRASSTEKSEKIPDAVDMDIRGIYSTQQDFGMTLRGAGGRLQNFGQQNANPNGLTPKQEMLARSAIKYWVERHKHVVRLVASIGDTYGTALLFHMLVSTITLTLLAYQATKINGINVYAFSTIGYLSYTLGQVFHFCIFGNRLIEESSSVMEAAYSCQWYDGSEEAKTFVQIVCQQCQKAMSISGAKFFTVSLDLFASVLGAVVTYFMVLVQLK

[2] = molecular target: T1, MsepOR13/Orco (MsepOR13/MsepOrco); experiment: two-electrode voltage clamp, Xenopus oocytes, dose-response; format: cell-based

SMILES | current response at 10^-4 M [1] | EC50 [2]
CC(=O)c1ccccc1 [Acetophenone] | 523.3 nA | –
C=CCc1ccc(OC)c(OC)c1 [Methyl eugenol] | ~ 1655 nA | –
CCCCCCO [1-Hexanol] | 60 nA | –
C=CCc1ccc(O)c(OC)c1 [Eugenol] | – | 3.91 µM
